The test system of test [1] is HepG2 cells. The test is described as follows: GTP concentration in folic acid challenged HepG2 cells. It counts as cell-based, human. The protocol: HepG2 cells, a human hepatocarcinoma cell line, were obtained from ATCC. These were maintained in MEM supplemented with 10% FCS; 1% NEAA; 1% penicillin/streptomycin mixture. Cells were seeded primarily at a density of approximately 1-2×10^6 cells and were split and transferred to new flasks when showing 70-90% confluency. 96-well microtitre plates (ex Micronic, Leylstad, N L.), containing 0.35×10^6 cells per well were incubated for 24 hours at 37° C.; 5% CO2. HepG2's were folic acid challenged by addition of folic acid free media for 1 hour. This folic acid challenged cells were compared with cells that remained at an increasing concentration of folic acid or ribose.
Nucleotides were measured as described by van Hoorn et al., Analytical Biochemistry (2003), 320, 82-87.
1. 6.5 hours incubation of HepG2 cells in either folic acid depleted media or media containing 2.27 μM folic acid

The target of test [2] is xanthine oxidase (Homo sapiens, UniProt P47989). The test is described as follows: Xanthine oxidase inhibition by flavonoids. Type of test: biochemical.
Test [3] is described as follows: Oxidative stress, plasma concentrations of malon dialdehyde.

Molecules are shown by their SMILES.

Sequence of xanthine oxidase (P47989 whole entry, species assumed): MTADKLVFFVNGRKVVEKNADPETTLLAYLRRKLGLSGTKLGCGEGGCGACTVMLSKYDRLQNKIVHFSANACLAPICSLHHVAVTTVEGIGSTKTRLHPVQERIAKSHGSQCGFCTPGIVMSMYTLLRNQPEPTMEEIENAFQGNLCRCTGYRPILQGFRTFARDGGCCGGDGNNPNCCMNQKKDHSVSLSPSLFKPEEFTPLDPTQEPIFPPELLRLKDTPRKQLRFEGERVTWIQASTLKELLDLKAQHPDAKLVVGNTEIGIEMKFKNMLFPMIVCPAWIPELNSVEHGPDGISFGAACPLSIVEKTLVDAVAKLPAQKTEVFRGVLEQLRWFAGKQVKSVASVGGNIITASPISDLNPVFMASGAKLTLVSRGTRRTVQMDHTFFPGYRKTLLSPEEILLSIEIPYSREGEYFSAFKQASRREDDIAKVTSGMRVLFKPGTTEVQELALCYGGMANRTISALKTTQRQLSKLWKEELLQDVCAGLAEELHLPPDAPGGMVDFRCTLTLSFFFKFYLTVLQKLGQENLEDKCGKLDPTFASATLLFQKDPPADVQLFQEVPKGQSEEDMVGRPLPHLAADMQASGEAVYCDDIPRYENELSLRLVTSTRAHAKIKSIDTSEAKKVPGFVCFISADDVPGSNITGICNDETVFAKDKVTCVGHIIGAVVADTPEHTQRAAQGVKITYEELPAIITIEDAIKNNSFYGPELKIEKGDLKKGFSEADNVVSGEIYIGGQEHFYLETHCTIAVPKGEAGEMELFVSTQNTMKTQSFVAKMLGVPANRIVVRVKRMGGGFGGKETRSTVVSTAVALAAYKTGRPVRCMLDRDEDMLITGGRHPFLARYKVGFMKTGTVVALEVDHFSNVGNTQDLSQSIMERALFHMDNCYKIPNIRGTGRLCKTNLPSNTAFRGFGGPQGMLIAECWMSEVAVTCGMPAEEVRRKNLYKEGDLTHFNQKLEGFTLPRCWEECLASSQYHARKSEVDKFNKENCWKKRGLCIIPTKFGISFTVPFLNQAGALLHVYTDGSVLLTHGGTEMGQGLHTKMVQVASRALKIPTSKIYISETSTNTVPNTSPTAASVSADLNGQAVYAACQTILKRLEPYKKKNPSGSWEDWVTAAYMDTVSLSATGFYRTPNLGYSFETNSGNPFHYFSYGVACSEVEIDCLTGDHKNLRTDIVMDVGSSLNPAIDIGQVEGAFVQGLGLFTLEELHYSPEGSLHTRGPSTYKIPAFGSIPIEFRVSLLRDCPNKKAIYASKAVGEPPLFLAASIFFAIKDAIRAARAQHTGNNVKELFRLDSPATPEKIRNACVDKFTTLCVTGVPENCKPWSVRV

With `O=C[C@H](O)[C@H](O)[C@H](O)CO` [ribose], the “GTP concentration in HepG2 cells, ribose on top of folic acid” value in test [1] (combination of ribose with folic acid, FIG. 10) is recorded as “additive effect”.
In the case of `O=c1cc(-c2ccc(O)c(O)c2)oc2cc(O)cc(O)c12` [luteolin], in test [2], the xanthine oxidase inhibition entry is “good xanthine oxidase inhibitors”. In addition, the “oxidative stress, plasma concentrations of malon dialdehyde” value in test [3] is “inhibit oxidative stress”.
As for `Nc1nc2ncc(CNc3ccc(C(=O)N[C@@H](CCC(=O)O)C(=O)O)cc3)nc2c(=O)[nH]1` [folic acid], the “GTP concentration in HepG2 cells” value in test [1] (single agent vs folic acid challenged cells, folic acid 2.27 μM, 6.5 hours) is “significantly increased”.
For `O=c1c(O)c(-c2ccc(O)c(O)c2)oc2cc(O)cc(O)c12` [quercetin], the xanthine oxidase inhibition entry in test [2] is given as “good xanthine oxidase inhibitors”. In test [3], the “oxidative stress, plasma concentrations of malon dialdehyde” value is listed as “inhibit oxidative stress”.
For `O=c1cc(-c2ccc(O)cc2)oc2cc(O)cc(O)c12` [apigenin] the same measures were “good xanthine oxidase inhibitors” and “inhibit oxidative stress”.

The values are drawn from patent publication US20070225203A1, “Method and Composition for Preventing Multiple Organ Dysfunction Syndrome” (N.V. NUTRICIA, priority 2003, published 2007).
